Key:
Test in all cases: relative viability (nuclei count vs DMSO), 5 days (fraction); higher = more cells survive
[1] = compound: CN(C)CC1=CC(=CC=C1)N=C(C2=CC=CC=C2)C3=C(NC4=C3C=CC(=C4)C(=O)N(C)C)O + CC(C)C[C@H](NC(=O)[C@H](Cc1ccccc1)NC(=O)c1cnccn1)B(O)O [Bortezomib] (partner 0.002 µM)
How it was run: (§1)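 Relative viability was taken as the ratio of nuclei in treated wells to nuclei in vehicle wells. Lung cancer cell lines in 1536-well plates received compounds by pin tool one day after seeding, either one drug alone or a fixed anchor-drug dose plus five library-drug doses (not always all listed) in √10 steps. Nuclei were counted on 4× images after 5 days of treatment, and values are medians of duplicate plates.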

[2] = compound: CN(C)CC1=CC(=CC=C1)N=C(C2=CC=CC=C2)C3=C(NC4=C3C=CC(=C4)C(=O)N(C)C)O + CC1(C)CCC(c2ccc(Cl)cc2)=C(CN2CCN(c3ccc(C(=O)NS(=O)(=O)c4ccc(N[C@H](CCN5CCOCC5)CSc5ccccc5)c(S(=O)(=O)C(F)(F)F)c4)cc3)CC2)C1 [Navitoclax] (partner 0.5 µM)
How it was run: as §1

[3] = compound: CN(C)CC1=CC(=CC=C1)N=C(C2=CC=CC=C2)C3=C(NC4=C3C=CC(=C4)C(=O)N(C)C)O + Cc1nc(Nc2ncc(C(=O)Nc3c(C)cccc3Cl)s2)cc(N2CCN(CCO)CC2)n1 [Dasatinib] (partner 0.075 µM)
How it was run: as §1

[4] = compound: CN(C)CC1=CC(=CC=C1)N=C(C2=CC=CC=C2)C3=C(NC4=C3C=CC(=C4)C(=O)N(C)C)O + CCNC(=O)c1noc(-c2cc(C(C)C)c(O)cc2O)c1-c1ccc(CN2CCOCC2)cc1 [Luminespib] (partner 0.01 µM)
How it was run: as §1

Cell Line	relative viability ([1]; first compound 0.08 µM)	relative viability ([1]; first compound 0.253 µM)	relative viability ([1]; first compound 0.8 µM)	relative viability ([1]; first compound 2.53 µM)	relative viability ([1]; first compound 8 µM)	relative viability ([2]; first compound 0.08 µM)	relative viability ([2]; first compound 0.253 µM)	relative viability ([2]; first compound 0.8 µM)	relative viability ([2]; first compound 2.53 µM)	relative viability ([2]; first compound 8 µM)	relative viability ([3]; first compound 0.08 µM)	relative viability ([3]; first compound 0.253 µM)	relative viability ([3]; first compound 0.8 µM)	relative viability ([3]; first compound 2.53 µM)	relative viability ([3]; first compound 8 µM)	relative viability ([4]; first compound 0.08 µM)	relative viability ([4]; first compound 0.253 µM)	relative viability ([4]; first compound 0.8 µM)	relative viability ([4]; first compound 2.53 µM)	relative viability ([4]; first compound 8 µM)
HCC-78	0.596	0.458	0.468	0.512	0.405	0.894	0.734	0.807	0.75	0.769	0.329	0.521	0.353	0.366	0.405	–	–	–	–	–
HCC-366	0.949	1.01	1.03	0.906	0.9	0.969	1.03	1.07	1.07	0.901	0.71	0.8	0.592	0.502	0.564	–	–	–	–	–
HCC-827	1.08	1.03	1.08	1.08	1.05	1.04	1.02	1.06	1	0.941	0.382	0.25	0.203	0.294	0.236	0.442	0.651	0.457	0.723	0.489
HOP-62	0.875	1.25	0.746	0.801	0.72	1.05	0.94	1.03	1.04	0.977	0.618	0.703	0.65	0.571	0.579	0.818	0.933	0.977	0.929	1.05
LC-2-ad	1.08	1.1	1.03	0.979	0.995	0.456	0.515	0.429	0.515	0.338	0.697	0.593	0.751	0.409	0.44	1.01	0.894	1.06	0.863	0.973
LCLC-97TM1	0.528	0.942	0.504	0.605	1.35	0.325	0.276	0.362	0.395	0.734	0.816	0.922	0.785	0.786	0.821	0.757	0.849	0.771	0.957	0.834
LCLC-103H	1.14	1.09	0.976	0.91	0.979	–	–	–	–	–	0.482	0.487	0.435	0.42	0.497	0.948	0.959	1.07	0.926	0.863
LK-2	–	–	–	–	–	1.06	0.784	0.897	0.789	0.761	0.296	0.389	0.25	0.328	0.275	0.229	0.164	0.188	0.183	0.138
LOU-NH91	0.493	0.472	0.447	0.533	0.472	0.756	0.687	0.548	0.653	0.638	0.572	0.552	0.485	0.539	0.503	0.308	0.32	0.358	0.337	0.322
NCI-H358	–	–	–	–	–	–	–	–	–	–	0.171	0.158	0.138	0.163	0.183	0.304	0.277	0.331	0.414	0.276
NCI-H650	0.695	0.993	0.767	0.717	0.661	–	–	–	–	–	0.521	0.487	0.447	0.461	0.447	0.843	0.777	0.872	0.667	0.861
NCI-H661	0.897	0.707	0.918	0.873	0.607	–	–	–	–	–	0.979	0.747	0.679	0.8	0.856	0.922	0.904	0.964	0.865	0.811
NCI-H1299	1.02	1.04	1.01	0.996	0.912	1.14	1.05	1.09	1.03	1.01	–	–	–	–	–	–	–	–	–	–
NCI-H1395	–	–	–	–	–	1.23	1.13	1.22	0.965	1.12	0.402	0.373	0.455	0.433	0.399	0.594	0.778	0.672	0.653	0.86
NCI-H1563	0.868	0.921	0.729	0.755	0.737	–	–	–	–	–	0.437	0.489	0.579	0.389	0.411	0.49	0.467	0.538	0.576	0.495
NCI-H1703	0.311	0.307	0.377	0.29	0.207	1.07	1.17	1.1	0.717	0.222	–	–	–	–	–	–	–	–	–	–
NCI-H1793	–	–	–	–	–	0.387	0.439	0.269	0.492	0.406	0.438	0.387	–	0.425	0.411	0.19	0.249	–	0.165	0.113
NCI-H1944	–	–	–	–	–	1.21	0.937	0.951	0.947	0.908	0.216	0.234	0.219	0.179	0.156	0.758	0.766	0.785	0.657	0.585
NCI-H2170	–	–	–	–	–	0.64	0.583	0.307	0.565	0.36	0.554	0.487	0.292	0.575	0.519	0.791	0.566	0.53	0.667	0.549
NCI-H2342	–	–	–	–	–	–	–	–	–	–	0.281	0.399	0.287	0.329	0.338	0.775	0.597	0.71	0.771	0.871
SK-MES-1	–	–	–	–	–	1.25	1.26	1.09	1.15	1.1	0.438	0.349	0.25	0.388	0.311	0.544	0.749	0.678	0.834	0.521
